Data taken from PubChem BioAssay (NCI).
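The compound was tested at five concentrations on cells cultured in 96-well plates, with a 48-hour exposure period. Abbreviation: GI50, concentration required for 50% inhibition of growth. TGI marks complete inhibition of growth.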

Legend:
Assay in all cases: NCI anticancer screen, dose series, 48 h
[1] = test system: HOP-62 NSCLC
[2] = test system: UO-31 renal
[3] = test system: SNB-75 CNS
[4] = test system: K-562 leukemia
[5] = test system: HCC-2998 colon
[6] = test system: SNB-19 CNS
[7] = test system: HL-60(TB) leukemia
[8] = test system: MDA-MB-435
[9] = test system: MCF7 breast
[10] = test system: BT-549 breast

SMILES	TGI [1]	TGI [2]	TGI [3]	TGI [4]	TGI [5]	TGI [6]	GI50 [1]	GI50 [2]	GI50 [4]	GI50 [7]	TGI [7]	GI50 [8]	TGI [8]	GI50 [5]	GI50 [6]	GI50 [9]	TGI [9]	GI50 [3]	GI50 [10]	TGI [10]
CCC1(OC(C)=O)C(=O)OCc2c1cc1n(c2=O)Cc2cc3ccccc3nc2-1 (stereo unspecified)	9.81 µM	8.19 µM	> 44.6 µM	> 100 µM	> 100 µM	> 100 µM	–	–	–	–	–	–	–	–	–	–	–	–	–	–
Cn1c(=O)c2[nH]c(COc3ccc(C(C)(C)C)cc3)nc2n(C)c1=O	> 100 µM	89.5 µM	–	> 100 µM	> 100 µM	> 100 µM	35.4 µM	13.6 µM	3.28 µM	10.6 µM	50.3 µM	4.09 µM	35.4 µM	16.8 µM	82.3 µM	17.1 µM	62.8 µM	–	–	–
CC/C=C\CCC/C=C1/C(=O)C=C[C@@H]1C/C=C\CCCC(=O)O	22 µM	5.58 µM	44.9 µM	37.9 µM	3.39 µM	20 µM	7.61 µM	2.16 µM	2.5 µM	2.75 µM	7.41 µM	2.01 µM	4.99 µM	1.8 µM	5.45 µM	3.07 µM	16.8 µM	18 µM	–	–
Cn1c(O)c(C(=O)Nc2ccc([N+](=O)[O-])cc2)c(=O)n(C)c1=S	4.05 µM	12.8 µM	6.37 µM	> 50.9 µM	7.23 µM	10.1 µM	–	–	–	–	> 100 µM	–	4.95 µM	–	–	–	> 100 µM	–	–	–
Cc1cc(C)c(C(=O)OC(c2ccccc2)C(c2ccccc2)N2CCOCC2)c(C)c1 (stereo unspecified)	> 100 µM	> 100 µM	> 100 µM	> 100 µM	> 100 µM	> 100 µM	–	–	–	–	> 100 µM	–	–	–	–	–	–	–	–	–
COc1ccc(NC(=O)C(=O)C2NC(=S)NC2=O)c(OC)c1 (stereo unspecified)	> 100 µM	> 100 µM	> 100 µM	> 100 µM	> 100 µM	> 100 µM	–	–	–	–	> 100 µM	–	–	–	–	–	–	–	–	–
O=[N+]([O-])c1ccc(Cl)c(C2SCc3nc4ccccc4n32)c1 (stereo unspecified)	–	66.1 µM	89.9 µM	> 100 µM	> 100 µM	> 100 µM	–	–	–	–	78.5 µM	–	–	–	–	–	–	–	–	–
CC[C@@H]1OC2(C)CC(S(=O)(=O)c3ccccc3)CC1O2 (stereo partly specified)	> 100 µM	> 100 µM	> 100 µM	> 100 µM	> 100 µM	> 100 µM	–	–	–	–	> 100 µM	–	–	–	–	–	–	–	–	–
CCc1cccc(C)c1NC(=O)NS(=O)(=O)c1ccc(C)cc1	> 100 µM	> 100 µM	> 100 µM	> 100 µM	> 100 µM	> 100 µM	–	–	–	–	> 100 µM	–	–	–	–	–	–	–	–	–
CCOC(=O)C(C[Si](C)(C)C)P(=O)(OCC)OCC (stereo unspecified)	> 100 µM	> 100 µM	> 100 µM	> 100 µM	> 100 µM	–	–	–	–	–	> 100 µM	–	–	–	–	–	–	–	–	–
COC(=O)CCC1=C(C)c2cc3[n-]c(cc4nc(cc5[n-]c(cc1n2)c(CCC(=O)OC)c5C)C=C4C)cc3C.[Cd+2]	76.2 µM	65.7 µM	33.8 µM	> 30.8 µM	> 68.1 µM	> 100 µM	25.4 µM	21.7 µM	3.32 µM	–	–	2.99 µM	19.6 µM	22.2 µM	25.6 µM	2.66 µM	11.9 µM	6.62 µM	0.925 µM	2.39 µM
O=Cc1coc2ccccc2c1=O	43.8 µM	28.8 µM	0.0768 µM	55.5 µM	–	70.4 µM	–	–	–	–	42.3 µM	–	47.9 µM	–	–	–	45.7 µM	–	–	36.8 µM
CC(=O)Oc1cccc2c1C(=O)c1c(OC(C)=O)cc(C)cc1C2=O	> 100 µM	–	> 100 µM	> 100 µM	> 100 µM	> 100 µM	–	–	–	–	> 100 µM	–	> 100 µM	–	–	–	> 100 µM	–	–	> 100 µM
O=C1C(c2ccccc2)=C(c2ccccc2)C(c2ccc(CCCCCCc3ccc(C4=C(c5ccccc5)C(=O)C(c5ccccc5)=C4c4ccccc4)cc3)cc2)=C1c1ccccc1	> 100 µM	> 100 µM	–	> 100 µM	> 100 µM	> 100 µM	–	–	–	–	> 100 µM	–	–	–	–	–	–	–	–	–
O=C1C2=C(c3ccccc31)C(c1ccccc1Cl)N1C(=O)CSC1=N2 (stereo unspecified)	> 100 µM	> 100 µM	> 100 µM	> 100 µM	> 100 µM	> 100 µM	–	–	–	–	> 100 µM	–	–	–	–	–	–	–	–	–
COc1ccccc1-n1c(SCc2cc(OC)c(OC)c(OC)c2)nc2ccc(Cl)cc2c1=O	> 100 µM	> 100 µM	32.7 µM	> 100 µM	> 100 µM	–	9.4 µM	8.52 µM	1.02 µM	2.99 µM	18.7 µM	0.366 µM	25.8 µM	7.8 µM	–	0.915 µM	> 100 µM	2.41 µM	3.95 µM	> 100 µM
Cc1ccc(NC(=O)C(=O)Cc2nc3ccccc3o2)c(C)c1	> 100 µM	> 100 µM	> 100 µM	> 100 µM	> 100 µM	> 100 µM	–	–	–	–	–	–	–	–	–	–	–	–	–	–
C=C1C(C)C2C(Cc3ccccc3)NC(=O)C23C(OC(C)=O)/C=C/C(C)(O)CC(C)C/C=C/C3C1O (stereo unspecified)	3.08 µM	1.1 µM	0.0862 µM	> 100 µM	> 100 µM	20.7 µM	–	–	–	–	36 µM	–	–	–	–	–	> 94.5 µM	–	–	> 47.3 µM
COC(=O)C1=C(C(=O)OC)C2(C(=O)OC)OC1(OC)C(C1(C(=O)OC)C(C(=O)OC)=C1C(=O)OC)=C2C(=O)OC (stereo unspecified)	> 100 µM	> 100 µM	> 100 µM	> 100 µM	> 100 µM	> 100 µM	–	–	–	–	> 100 µM	–	–	–	–	–	–	–	–	–
CC1=C2C(c3ccccc3)(c3ccccc3)C3C=CC2(C=N3)N(C(=O)NC2CCCCC2)C1=O (stereo unspecified)	31.7 µM	27.3 µM	–	34.6 µM	32.4 µM	32.9 µM	–	–	–	–	30.2 µM	–	–	–	–	–	–	–	–	–
COC1=C(OC)CCC(/C(C#N)=C/c2ccc(OC)c(OC)c2)=C1	86.9 µM	> 100 µM	43 µM	> 100 µM	> 100 µM	–	–	–	–	–	–	–	–	–	–	–	–	–	–	–
CCCCCCCCCC(=O)CC(=O)c1c(O)cccc1O	> 100 µM	> 100 µM	99.7 µM	86 µM	> 100 µM	> 100 µM	–	–	–	–	45.3 µM	–	–	–	–	–	–	–	–	–
